Experimental data as given in PubChem BioAssay (NCI).
Values joined by “and” are separate entries in the source; they are usually repeats but may differ in a detail not shown here. Equal entries are not always repeated.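 These data come from cells grown in 96-well plates and exposed to compound for 48 hours at five concentrations. At the GI50, growth is halved. TGI: total growth inhibition.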

What was measured:
Assay in all cases: growth of human tumour cells (NCI), 48 h; in the data active = GI50 below about 0.43 µM; inactive = the rest
786-0 renal = system: 786-0 renal
A498 renal = system: A498 renal
A549 NSCLC = system: A549 NSCLC
ACHN renal = system: ACHN renal
BT-549 breast = system: BT-549 breast
CAKI-1 renal = system: CAKI-1 renal
CCRF-CEM leukemia = system: CCRF-CEM leukemia
COLO 205 colon = system: COLO 205 colon
DU-145 prostate = system: DU-145 prostate
EKVX NSCLC = system: EKVX NSCLC
HCC-2998 colon = system: HCC-2998 colon
HCT-116 colon = system: HCT-116 colon
HCT-15 colon = system: HCT-15 colon
HL-60(TB) leukemia = system: HL-60(TB) leukemia
HOP-62 NSCLC = system: HOP-62 NSCLC
HOP-92 NSCLC = system: HOP-92 NSCLC
HS 578T breast = system: HS 578T breast
HT29 colon = system: HT29 colon
IGROV1 ovarian = system: IGROV1 ovarian
K-562 leukemia = system: K-562 leukemia
KM12 colon = system: KM12 colon
LOX IMVI melanoma = system: LOX IMVI melanoma
M14 melanoma = system: M14 melanoma
MALME-3M melanoma = system: MALME-3M melanoma
MCF7 breast = system: MCF7 breast
MDA-MB-231 breast = system: MDA-MB-231 breast
MDA-MB-435 = system: MDA-MB-435
MDA-N = system: MDA-N
MOLT-4 leukemia = system: MOLT-4 leukemia
NCI-H226 lung = system: NCI-H226 lung
NCI-H23 lung = system: NCI-H23 lung
NCI-H460 lung = system: NCI-H460 lung
NCI/ADR-RES ovarian = system: NCI/ADR-RES ovarian
OVCAR-3 ovarian = system: OVCAR-3 ovarian
OVCAR-4 ovarian = system: OVCAR-4 ovarian
OVCAR-5 ovarian = system: OVCAR-5 ovarian
OVCAR-8 ovarian = system: OVCAR-8 ovarian
PC-3 prostate = system: PC-3 prostate
RPMI-8226 leukemia = system: RPMI-8226 leukemia
RXF 393 renal = system: RXF 393 renal
SF-268 CNS = system: SF-268 CNS
SF-295 CNS = system: SF-295 CNS
SF-539 CNS = system: SF-539 CNS
SK-MEL-2 melanoma = system: SK-MEL-2 melanoma
SK-MEL-28 melanoma = system: SK-MEL-28 melanoma
SK-MEL-5 melanoma = system: SK-MEL-5 melanoma
SK-OV-3 ovarian = system: SK-OV-3 ovarian
SN12C renal = system: SN12C renal
SNB-19 CNS = system: SNB-19 CNS
SNB-75 CNS = system: SNB-75 CNS
SR leukemia = system: SR leukemia
SW-620 colon = system: SW-620 colon
T-47D breast = system: T-47D breast
TK-10 renal = system: TK-10 renal
U251 CNS = system: U251 CNS
UACC-257 melanoma = system: UACC-257 melanoma
UACC-62 melanoma = system: UACC-62 melanoma
UO-31 renal = system: UO-31 renal

CCOP(=O)(OCC)C(C)(CC)NC(=O)C(C(F)(F)F)C(F)(F)F (stereo unspecified)
99.7 µM and > 100 µM: TGI (BT-549 breast)
inactive: GI50 (BT-549 breast) 19.3 µM and 3.87 µM | GI50 (HL-60(TB) leukemia) 25.8 µM | GI50 (K-562 leukemia) 18.6 µM and 39.1 µM | GI50 (MDA-MB-231 breast) > 100 µM | GI50 (SF-539 CNS) 48.1 µM and > 100 µM | GI50 (SNB-75 CNS) > 71.6 µM | GI50 (T-47D breast) > 51.5 µM and 21.1 µM | GI50 (UACC-62 melanoma) > 100 µM
48.7 µM and 53.1 µM: TGI (CCRF-CEM leukemia)
> 100 µM and 99.7 µM: TGI (T-47D breast)
> 81.6 µM and 59.7 µM: TGI (RPMI-8226 leukemia)
64.6 µM: TGI (HL-60(TB) leukemia)
> 100 µM: TGI (786-0 renal) | TGI (A498 renal) | TGI (A549 NSCLC) | TGI (ACHN renal) | TGI (CAKI-1 renal) | TGI (COLO 205 colon) | TGI (DU-145 prostate) | TGI (EKVX NSCLC) | TGI (HCC-2998 colon) | TGI (HCT-116 colon) | TGI (HCT-15 colon) | TGI (HOP-62 NSCLC) | TGI (HOP-92 NSCLC) | TGI (HS 578T breast) | TGI (HT29 colon) | TGI (IGROV1 ovarian) | TGI (K-562 leukemia) | TGI (KM12 colon) | TGI (LOX IMVI melanoma) | TGI (M14 melanoma) | TGI (MALME-3M melanoma) | TGI (MCF7 breast) | TGI (MDA-MB-231 breast) | TGI (MDA-MB-435) | TGI (MDA-N) | TGI (MOLT-4 leukemia) | TGI (NCI-H226 lung) | TGI (NCI-H23 lung) | TGI (NCI-H460 lung) | TGI (NCI/ADR-RES ovarian) | TGI (OVCAR-3 ovarian) | TGI (OVCAR-4 ovarian) | TGI (OVCAR-5 ovarian) | TGI (OVCAR-8 ovarian) | TGI (PC-3 prostate) | TGI (RXF 393 renal) | TGI (SF-268 CNS) | TGI (SF-295 CNS) | TGI (SF-539 CNS) | TGI (SK-MEL-2 melanoma) | TGI (SK-MEL-28 melanoma) | TGI (SK-MEL-5 melanoma) | TGI (SK-OV-3 ovarian) | TGI (SN12C renal) | TGI (SNB-19 CNS) | TGI (SNB-75 CNS) | TGI (SR leukemia) | TGI (SW-620 colon) | TGI (TK-10 renal) | TGI (U251 CNS) | TGI (UACC-257 melanoma) | TGI (UACC-62 melanoma) | TGI (UO-31 renal)
